Data reported in article PMC7047876, “Potent Chimeric Antimicrobial Derivatives of the Medicago truncatula NCR247 Symbiotic Peptide” (Frontiers in Microbiology, 2020).
In brackets after ≈: the same amount, converted by molar mass. Entries after “also recorded” stand apart in the source; their conditions may differ. Peptide text beside a SMILES is read from it.

What was measured:
Type in all cases: cell-based
[1] = system: human melanoma A375 cells; experiment: XTT cell proliferation (cytotoxicity) assay; settings: 72 h treatment, OD450, three biological repeats
Procedure: The cytotoxicity of peptides X1-NCR247C and NCR247C-X2 was determined against the human melanoma A375 cells with XTT cell proliferation assay kit (PanReac Applichem) and a benchtop microplate reader (Multiskan RC, Thermo Labsystems) according to the manufacturers’ instructions. A375 human melanoma cell line was obtained from ATCC and maintained in DMEM (Lonza) supplemented by 10% FBS (Euroclone) in a humidified incubator at 37°C and 5% CO2. A375 cells were seeded to 96-well plates (4,000 cells/well) and treated with the peptides for 72 h. Cells without peptides served as negative control and the blank sample was the medium. Reduction of the tetrazolium salt XTT by the viable cells to the orange colored compounds of formazan was measured at OD450. The XTT assay was performed in three biological repeats.

[2] = system: Salmonella enterica (ATCC 13076); experiment: microbe, parasite or virus in culture; settings: ATCC 13076, 3 h, pH 7.4; read-out: Minimal bactericidal concentration (MBC) S. e.
Text: (§1) The pathogenic bacterial strains obtained from the ATCC (United States) and NCTC (National Collection of Type Cultures – England) were the Gram-positive: Enterococcus faecalis (ATCC 29212), Staphylococcus aureus (HNCMO112011), Listeria monocytogenes (ATCC 19111) and the Gram-negative: Pseudomonas aeruginosa (ATCC 27853), Escherichia coli (ATCC 8739), Salmonella enterica (ATCC 13076), Klebsiella pneumoniae (NCTC 13440), Acinetobacter baumannii (ATCC 17978).
(§2) Overnight bacterial cultures grown in LB were diluted and grown to OD600 = 0.2–0.6 at 37°C with shaking. After harvesting and washing bacteria in PPB, the suspensions were adjusted to OD600 = 0.1 corresponding to ∼10^7 bacteria/mL. Antimicrobial activity of the peptides and the antibiotics was determined in PPB in 96 well microplates using 10 μL bacterial suspension and 90 μL of the 2-fold serial dilutions of peptides or antibiotics. Peptides were tested from 25 μM to 0.125 μM whereas the antibiotics; carbenicillin (Cb) from Duchefa Biochemie (Prod.No. C0109.0025) and levofloxacin (Lvx) from Sigma-Aldrich (Prod.No. 28266-10MG-F) from […] to 0.1 μM. The microplates were incubated for 3 h at 37°C with 250 rpm shaking and then 5 μl from each sample was placed on LB agar and the growth of bacteria was monitored after overnight incubation at 37°C. The lowest concentration of the antimicrobial agents, which completely eliminated viable bacteria was the minimal bactericidal concentration (MBC).

[3] = system: Acinetobacter baumannii (ATCC 17978); experiment: microbe, parasite or virus in culture; settings: ATCC 17978, 3 h, pH 7.4; read-out: Minimal bactericidal concentration (MBC) A. b.
Text: as §1, §2

[4] = system: Listeria monocytogenes (ATCC 19111); experiment: microbe, parasite or virus in culture; settings: ATCC 19111, 3 h, pH 7.4; read-out: Minimal bactericidal concentration (MBC) L. m.
Text: as §1, §2

[5] = system: Pseudomonas aeruginosa (ATCC 27853); experiment: microbe, parasite or virus in culture; settings: ATCC 27853, 3 h, pH 7.4; read-out: Minimal bactericidal concentration (MBC) P. a.
Text: as §1, §2

[6] = system: Escherichia coli (ATCC 8739); experiment: microbe, parasite or virus in culture; settings: ATCC 8739, 3 h, pH 7.4; read-out: Minimal bactericidal concentration (MBC) E. c.
Text: as §1, §2

[7] = system: Klebsiella pneumoniae (NCTC 13440); experiment: microbe, parasite or virus in culture; settings: NCTC 13440, 3 h, pH 7.4; read-out: Minimal bactericidal concentration (MBC) K. p.
Text: as §1, §2

[8] = system: Enterococcus faecalis (ATCC 29212); experiment: microbe, parasite or virus in culture; settings: ATCC 29212, 3 h, pH 7.4; read-out: Minimal bactericidal concentration (MBC) E. f.
Text: as §1, §2

[9] = system: Staphylococcus aureus (HNCMO112011); experiment: microbe, parasite or virus in culture; settings: HNCMO112011, 3 h, pH 7.4; read-out: Minimal bactericidal concentration (MBC) S. a.
Text: as §1, §2

Staphylococcus aureus = system: Staphylococcus aureus
Text: as §1
(§3) Ca^2+ and Mg^2+ can inhibit the antimicrobial activity of cationic peptides, therefore the MBC and MIC values were also determined in MHB, which unlike PPB contains divalent cations and allows growth of bacteria. Bacteria were grown and prepared similarly except that bacteria were resuspended in MHB. 10 μl of bacteria OD600 = 0.1, supplemented with 45 μl MHB and 45 μl of 2-fold dilution series of peptides, were cultivated for 3 and 20 h at 37°C with shaking. Optical density of each sample was measured (Hidex Sense Microplate Reader with Plate Reader Software version 5064) and 5 μl was placed on LB agar plates after 3 and 20 h treatment. The minimal inhibitory concentration (MIC) corresponded to the lowest concentration, which inhibited growth.

Acinetobacter baumannii = system: Acinetobacter baumannii
Text: as §1, §3

Escherichia coli = system: Escherichia coli
Text: as §1, §3

Compound	Cytotoxicity / viability of A375 cells [1]	MBC [2] [µM]	MBC [3] [µM]	MBC [4] [µM]	MBC [5] [µM]	MBC [6] [µM]	MBC [7] [µM]	MBC [8] [µM]	MBC [9] [µM]	MBC in Mueller Hinton Broth, panel (A), S. a. (Staphylococcus aureus; 3 h) [µM]	MBC in Mueller Hinton Broth, panel (B), S. a. (Staphylococcus aureus; 20 h) [µM]	MIC in Mueller Hinton Broth, panel (C), S. a. (Staphylococcus aureus; 20 h) [µM]	MBC in Mueller Hinton Broth, panel (A), A. b. (Acinetobacter baumannii; 3 h) [µM]	MBC in Mueller Hinton Broth, panel (B), A. b. (Acinetobacter baumannii; 20 h) [µM]	MIC in Mueller Hinton Broth, panel (C), A. b. (Acinetobacter baumannii; 20 h) [µM]	MBC in Mueller Hinton Broth, panel (A), E. c. (Escherichia coli; 3 h) [µM]	MBC in Mueller Hinton Broth, panel (B), E. c. (Escherichia coli; 20 h) [µM]	MIC in Mueller Hinton Broth, panel (C), E. c. (Escherichia coli; 20 h) [µM]
CC[C@H](C)[C@H](NC(=O)[C@H](CCCCN)NC(=O)[C@H](CCCCN)NC(=O)[C@H](C)NC(=O)[C@H](CC(C)C)NC(=O)[C@H](C)NC(=O)[C@H](C)NC(=O)[C@H](CC(C)C)NC(=O)[C@H](C)NC(=O)[C@H](CCCCN)NC(=O)[C@H](CCCNC(=N)N)NC(=O)[C@H](CCCNC(=N)N)NC(=O)[C@H](CCCNC(=N)N)NC(=O)[C@H](CS)NC(=O)[C@H](Cc1ccc(O)cc1)NC(=O)[C@H](CC(C)C)NC(=O)[C@@H]1CCCN1C(=O)[C@H](CCCNC(=N)N)NC(=O)[C@H](CCCNC(=N)N)NC(=O)[C@H](CS)NC(=O)[C@H](CCC(N)=O)NC(=O)[C@@H](N)CCC(N)=O)C(=O)N[C@@H](CC(C)C)C(N)=O [F, NCR247C-X2] (H-QQCRRPLYCRRRKALAALAKKIL-NH2; N-terminus assumed)	no cytotoxicity up to 12.5 μM; also recorded: slight decrease of the viable cell number was observed at 25 μM																	
CSCC[C@H](NC(=O)[C@H](CCCCN)NC(=O)[C@H](Cc1ccccc1)NC(=O)[C@H](CC(N)=O)NC(=O)[C@H](CC(C)C)NC(=O)[C@@H]1CCCN1C(=O)[C@@H](N)CCCNC(=N)N)C(=O)N[C@@H](CC(C)C)C(=O)N[C@@H](CCCNC(=N)N)C(=O)N[C@@H](Cc1ccccc1)C(=O)N[C@@H](Cc1c[nH]c2ccccc12)C(=O)NCC(=O)N[C@@H](CCC(N)=O)C(=O)N[C@@H](CCC(N)=O)C(=O)N[C@@H](CCC(N)=O)C(=O)N[C@@H](CS)C(=O)N[C@@H](CCCNC(=N)N)C(=O)N[C@@H](CCCNC(=N)N)C(=O)N1CCC[C@H]1C(=O)N[C@@H](CC(C)C)C(=O)N[C@@H](Cc1ccc(O)cc1)C(=O)N[C@@H](CS)C(=O)N[C@@H](CCCNC(=N)N)C(=O)N[C@@H](CCCNC(=N)N)C(=O)N[C@@H](CCCNC(=N)N)C(N)=O [D, X1-NCR247C] (H-RPLNFKMLRFWGQQQCRRPLYCRRR-NH2; N-terminus assumed)	did not show differences	1.6 (≈ 5.29 µg/mL)	3.1 (≈ 10.3 µg/mL)	3.1 (≈ 10.3 µg/mL)	3.1 (≈ 10.3 µg/mL)	3.1 (≈ 10.3 µg/mL)	12.5 (≈ 41.4 µg/mL)	6.3 (≈ 20.8 µg/mL)	3.1 (≈ 10.3 µg/mL)	25 (≈ 82.7 µg/mL)	3.1 (≈ 10.3 µg/mL)	3.1 (≈ 10.3 µg/mL)	6.3 (≈ 20.8 µg/mL)	3.1 (≈ 10.3 µg/mL)	3.1 (≈ 10.3 µg/mL)	12.5 (≈ 41.4 µg/mL)	3.1 (≈ 10.3 µg/mL)	3.1 (≈ 10.3 µg/mL)
